“And” between values parts separate entries of the source, which are not always exact repeats. Equal entries are not always repeated. “Also recorded” adds a separate entry of the source. Where two headings read alike, the source gives them in different places.
Columns and labels:
[1] = tested on: human acetylcholine receptor M3R subtype; experiment: GRAB-ACh sensor fluorescence response to ACh, drug perfusion in HEK293T cells; assay type: cell-based
Protocol: After DNA encoding specific GRAB sensor was introduced into cells by transfection, fluorescence imaging combined with perfusion experiment was. The imaging capture of HEK293T cells was performed using an Olympus IX81 inverted microscope, 40×NA: 1.35 oil lens, 475/28 excitation light filter, and 515LP emission light filter. The optical signal was collected by a Zyla sCMOS DG-152V-Cle FI camera (Andor), and Lambda DG-4 from Sutter Instuments company was used as a fluorescent light source. The exposure time was set to less than 50 ms and the acquisition frequency was 5 seconds. The entire imaging system was overall controlled by micromanager software.
The detection of the response of the GRAB sensor to the ligand (ΔF/F0) was performed using a drug perfusion method. The cells were placed in a standard physiological solution, and the formula thereof is: […]
The pH of the physiological solution was adjusted to about 7.4, and the small molecule drug was diluted with a part of the physiological solution to formulate solutions of respective concentrations of the small molecule ligand. […] Unless explicitly specified, the concentration of isoproterenol (ISO) for perfusion was 2 μM, and the concentration of acetylcholine for perfusion was 100 μM.
The perfusion system was equipped on a microscope, including a solution-introduced system made of syringe for injection, a multi-way valve, an imaging workbench and a suction pump. During the perfusion process, the imaging workbench was placed above the objective lens of the inverted microscope, and then the slide on which cell plated were placed in the workbench. Perfusion of different drugs were performed by controlling the switches of different pipes. In order to control the level of the solution in the workbench, the perfusion speed was set to one drop or so per second. After each drug treatment, the cells were washed with a physiological solution for more than five minutes to ensure that there were no residual drugs that will affect subsequent experiments. After the end of each experiment, the perfusion pipe and the workbench were cleaned with 75% ethanol three times to ensure that the residual drugs and impurities were fully washed away.
Fluorescence imaging data was processed using ImageJ software. For the performance of GRAB sensors in HEK293T cells and neurons, the fluorescence of entire cell body was selected as the data processing region. For living Drosophila imaging, fluorescence images on the same Z axis were analyzed by ImageJ software. The change in the fluorescence signal was indicated by its relative difference. The signal of background area without the expression of the sensor was first subtracted from the fluorescence signal, so as to obtain the real expression of the intensity of the fluorescent protein. Then, by calculating the fluorescence value F after adding the drug and the average fluorescence value F0 before adding, the relative fluorescence change ΔF/F=(F−F0)/F0 was obtained as the fluorescence response of the sensor to a specific drug. The change of ΔF/F0 with time was further plotted by Origin 8.6 software.
Based on GRAB-ACh 1.0, this peptide linker was optimized. First, based on a flexible amino acid (glycine, alanine), the peptide segment was screened for optimal length. The specific strategy was to change the length of the peptide linkers at the N-terminus and C-terminus from 0 to 5 amino acids, respectively, and to randomly combine the N-terminus with C-terminus to obtain all possible permutations. Fusion protein expression vectors containing various arrangements were expressed in HEK293T cells and subjected to perfusion experiments.

[2] = tested on: human acetylcholine receptor M3R subtype; experiment: GRAB-ACh 2.0 kinetics, rapid local perfusion with high-speed line scanning; assay type: cell-based
Protocol: For the detection of GRAB sensor kinetics, a local drug delivery system was used for the experiment. The experiment was performed using an Olympus upright microscope BX51, wherein a 40×NA: 0.80 water lens was used for imaging, and a 710M camera (DVC) was used for image acquisition. The drug delivery system was controlled by ROE-200 (from Sutter instruments company), and the position of the drug delivery needle was controlled by the MPS-1 operating lever. For the dynamic characterization experiment of the sensor, the imaging was processed using a frequency of 50 HZ (with a resolution of 768×484 pixels) and a surface element partition of 2×2.
The Journal of pharmacology and experimental therapeutics 330, 660-668 (2009)) reduced the fluorescence signal in GRAB-ACh 2.0 expressing cells perfused with 100 μM ACh, with a smaller time constant of 762±75 ms (FIGS. 14b-c, right panel).
Target sequence in this assay (as listed by the source): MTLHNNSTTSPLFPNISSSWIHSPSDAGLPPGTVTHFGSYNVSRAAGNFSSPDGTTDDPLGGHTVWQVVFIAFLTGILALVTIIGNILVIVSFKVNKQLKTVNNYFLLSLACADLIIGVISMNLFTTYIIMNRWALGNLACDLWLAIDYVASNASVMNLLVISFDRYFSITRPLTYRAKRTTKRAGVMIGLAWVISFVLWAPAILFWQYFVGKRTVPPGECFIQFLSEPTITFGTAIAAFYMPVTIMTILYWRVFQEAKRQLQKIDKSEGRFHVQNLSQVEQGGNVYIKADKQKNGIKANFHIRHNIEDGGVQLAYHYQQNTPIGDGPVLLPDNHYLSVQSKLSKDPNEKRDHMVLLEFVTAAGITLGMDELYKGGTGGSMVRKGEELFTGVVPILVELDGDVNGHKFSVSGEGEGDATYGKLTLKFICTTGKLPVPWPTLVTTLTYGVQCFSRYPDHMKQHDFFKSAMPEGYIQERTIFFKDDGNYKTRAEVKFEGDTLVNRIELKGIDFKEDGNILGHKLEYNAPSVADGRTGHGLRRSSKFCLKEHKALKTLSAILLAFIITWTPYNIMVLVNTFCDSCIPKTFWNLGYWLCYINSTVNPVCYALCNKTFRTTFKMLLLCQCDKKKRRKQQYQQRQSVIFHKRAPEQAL

human HTR2C receptor = assay type: cell-based; details: for antagonism of serotonin-induced increase of GRAB-5-HT2.1 fluorescence signal: antagonist added after serotonin; for agonist-induced change of GRAB-5-HT2.1 fluorescence signal: GRAB-5-HT2.1 in HEK293T cells
human ADRA2A receptor = assay type: cell-based
Protocol: The perfusion system was set on a microscope, and including a solution-introduced system, an imaging cell, and a suction pump. During the perfusion process, the imaging cell was placed above the objective lens of the inverted microscope, and the slide with cultured cells was placed in the cell. The perfusion experiments of different drugs were performed by controlling the switches of the different pipes of the solution-introduced system. The perfusion speed was set to one drop or so per second. In order to ensure the stability of the focal plane, the liquid level was kept constant at all times, and the flow rate of each solution was adjusted accordingly. The aspiration speed was adjusted to maintain the liquid level in the cell over the slide.
The region of interest (ROI) and background area were selected manually prior to the perfusion experiment. The exposure time was set to less than 50 ms and the acquisition frequency was 5 seconds. The solution used for the perfusion was a physiological solution 4k (pH 7.3-7.4), which was used to formulate the drug to the desired concentration. The running time of the program was set to no more than 5 min. After using 4k to balance and stabilize the cells for about 60-90 s, the cells were perfused with drug for 60 s, and then washed with 4k. The excitation light for green fluorescent protein was 488 nm, and for red fluorescent protein was 568 nm. The laser intensity was adjusted according to the working state of the laser and the expression level of the cells.
After the end of the program, the time-fluorescence intensity data sheet was exported. The background was subtracted from the ROI to get the corresponding fluorescence value Ft, and the average value of the fluorescence value before adding the drug was used as the starting fluorescence F0 to calculate
The detection of the response of the GRAB sensor to the ligand (ΔF/F0) was performed by drug perfusion. The cells were maintained in a standard physiological solution, and the formula thereof is: […]
Fluorescence imaging data was processed using ImageJ software. For the fluorescence performance of GRAB sensors in HEK293T cells and neurons, the entire cell body was selected as the data processing region. The change in the fluorescence signal was usually indicated by its relative intensity change. The background area without the expression of the sensor was first subtracted from the fluorescence signal, so as to obtain the true expression intensity of the fluorescent protein.

[3] = tested on: GRAB-GDA3.0 signal in mushroom body (MB); experiment: Odor-stimulated GRAB-GDA3.0 signal in mushroom body, in vivo two-photon imaging; set-up: species or system Drosophila; details: 10 μM antagonist in imaging solution, n=6
Protocol: Drosophila were kept in a 25-degree incubator with a standard medium. […] The adult Drosophila to be tested were transferred to a new culture tube within 0-2 days after emergence, and left at room temperature for 8-12 days. Before the imaging, the Drosophila were first fixed in a small dish, and then the square skull part near the eye was surgically removed to expose part of the brain. The adipose tissue and air sacs near the antennal lobes to be imaged were surgically removed to prevent interference with the fluorescent signal. In order to further reduce the degradation of image quality caused by the movement of Drosophila during the imaging, surgical forceps were used to cut the muscles underneath its halter. Throughout the dissection and imaging procedures, the brain of Drosophila was kept in a pre-chilled physiological solution, and the formula thereof is as follows: […]
Drosophila imaging was performed using an Olympus two-photon microscope, including Olympus BX61 WI microscope, 25×NA: 1.05 water lens, and Ti:Sapphire laser mode-locked laser for two-photon excitation. For GRAB sensor imaging experiments, the wavelength of the […] was set to 950 nm in order to successfully excite the fluorescent protein to produce fluorescence. The odor molecule isoamyl acetate (IA) used for stimulating Drosophila was purchased from Sigma, and was diluted in mineral oil at a ratio of 1:100. In the experiment, the isoamyl acetate was further diluted 5-40 times by mixing with air. The air mixed with odor molecules was provided at a position about 1 cm away from the tentacles of the Drosophila through a cavity about 1 cm wide on the experimental table. The odor molecule of different concentrations was tested by controlling the airflow. Each imaging cycle was 17.8 seconds, of which 5 to 10 seconds was the time for providing specific odor molecules. After the imaging experiment for odor function, the imaging area was scanned layer by layer with high resolution setting to obtain the distribution information of the olfactory bulb, which was later identified based on the information of olfactory bulb distribution at the antennal lobe reported in the literature.
The transgenic Drosophila UAS-GRAB-GDA3.0 was constructed to express the GRAB-GDA3.0 sensor in specific cells, driven by the corresponding GAL4 strain. First, GRAB-GDA3.0 was expressed in dopaminergic neurons (DAN) in all Drosophila, and the response induced by odor (isoamyl acetate) was examined by in vivo two-photon imaging (FIG. 39A).
A pharmacological study was performed on GRAB-GDA3.0.
The rate of GDA signal attenuation between normal Drosophila and Drosophila with reduced DAT expression was compared (this is the experiment of gene level research using DAT-RNAi described later). In DAN, the dopamine transporter (DAT) is located in the presynaptic membrane and […] DA intermittently and cyclically from the synapse. DAT-RNAi was used to inhibit DAT expression in DAN (FIG. 40G).

human DRD2 receptor = experiment: GRAB-GDA3.0 fluorescence response in HEK293T cells, drug perfusion; assay type: cell-based; details: HEK293T cells
From the text: There are 5 subtypes of human dopamine receptors in the body, which are named DRD1-DRD5. For constructing a fluorescent sensor, the receptors were screened preliminarily by inserting a fluorescent protein at any position in the third intracellular loop of the receptor. […] Specifically, for the third intracellular loop of the human DRD2 receptor, the insertion sites were set every 15 amino acids. Human DRD2 receptors inserted with circular permutated fluorescent proteins at different positions were expressed in HEK293T cells, and drug perfusion experiments were conducted with dopamine. […] After the positions sensitive to conformational change were determined, the surrounding amino acid sites thereof were further screened. The sites surrounding the amino acid position 252 at N-terminus and the sites surrounding the amino acid position 357 at the C-terminus were combined and different sensors were constructed. The sensors were expressed in HEK293T cells and subjected to drug perfusion experiments with dopamine. […] The peptide linkers were GG at the N-terminus and GGAAA at the C-terminus.

## GRAB-ACh 2.0: GRAB-ACh variant with GG-APSVA peptide linkers, SEQ ID NO: 16
[1]; 100 μM ACh perfusion, HEK293T cells
  ΔF/F0 peak response: ~100% and 90.12±1.74% and 94.0±3.0% and 90%
[1]; ACh 10 nM to 100 μM, Boltzmann fit, n=4
  EC50: ~700 nM
[1]; ACh (100 μM), second round screening, HEK293T cells
  ΔF/F0 response: ~0.9
[1]; dose-dependent response to ACh
  pEC50: 6.12 ± 0.11
[2]; ACh perfusion, single scan
  time constant of fluorescence increase: 185 ms
[2]; Tio perfusion, single scan
  time constant of fluorescence decrease: 696 ms
[2]; local ACh perfusion, single exponential fit, n=18
  average on time constant: 279.4 ± 32.6 ms and 280 ± 32 ms
[2]; local antagonist perfusion in 100 μM ACh, n=11
  average off time constant: 762.3 ± 74.9 ms and 762 ± 75 ms

## COc1cc(OC)c(C(=O)CCCCN2CCC3(CC2)NC(=O)NC3=O)cc1NS(=O)(=O)c1ccc(C(F)(F)F)cc1 [RS102221]
Human HTR2C receptor
  antagonism of serotonin-induced increase of GRAB-5-HT2.1 fluorescence signal: can antagonize; also recorded: can inhibit

## Clc1cccc(COc2cncc(N3CCNCC3)n2)c1 [CP809]
Human HTR2C receptor
  agonist-induced change of GRAB-5-HT2.1 fluorescence signal: can cause the fluorescence signal change; also recorded: can induce changes in fluorescent signal

## CN1CCN(c2nc3cc(C(F)(F)F)ccc3n3cccc23)CC1.O=C(O)/C=C\C(=O)O.O=C(O)/C=C\C(=O)O [CGS12066B]
Human HTR2C receptor
  agonist-induced change of GRAB-5-HT2.1 fluorescence signal: cannot cause the change; also recorded: cannot change the fluorescent signal

## Cc1cc(NC(=O)Nc2ccc3c(ccn3C)c2)sn1 [SB204741]
Human HTR2C receptor
  antagonism of serotonin-induced increase of GRAB-5-HT2.1 fluorescence signal: cannot antagonize; also recorded: failed to inhibit

## CC(N)Cc1c[nH]c2ccc(OCc3cccs3)cc12 (centres unmarked) [BWT23C83]
Human HTR2C receptor
  agonist-induced change of GRAB-5-HT2.1 fluorescence signal: cannot cause the change; also recorded: cannot change the fluorescent signal

## CC(C)NCC(O)c1ccc(O)c(O)c1 (centres unmarked) [ISO, Isoproterenol]
Human ADRA2A receptor; GRAB-NE2.0, saturated concentration
  fluorescent signal change of GRAB-NE2.0 to ligand: no response
Human ADRA2A receptor; cells expressing GRAB-NE2.1
  activation of GRAB-NE2.1 fluorescence signal by ligand: cannot

## CCCN(CCC)CC1CCCCN1CCNC(=O)N1c2ccccc2C(=O)Nc2cccnc21 (centres unmarked) [AF-DX384]
[1]; GRAB-ACh 2.0 in HEK293T cell
  effect of M3R antagonist on ACh-induced increase of fluorescence: completely blocked

## NC1=NCC2c3ccccc3Cc3ccccc3N12 (centres unmarked) [epinastine]
[3]
  effect on odor (IA)-stimulated GDA signal in MB β' lobe: cannot be blocked; also recorded: failed to be blocked

## NCCc1ccc(O)c(O)c1 [dopamine, Dopamine]
Human DRD2 receptor
  activation or block of GRAB-GDA3.0: activated

## CNC[C@H](O)c1ccc(O)c(O)c1 [Epi, Epinephrine]
Human ADRA2A receptor
  activation of GRAB-NE2.1 fluorescence signal by ligand: can activate
  fluorescent signal change of GRAB-NE2.0 to ligand: exhibits a fluorescent signal change

## NC[C@H](O)c1ccc(O)c(O)c1 [NE, Norepinephrine]
Human ADRA2A receptor
  activation of GRAB-NE2.1 fluorescence signal by ligand: can activate
  fluorescent signal change of GRAB-NE2.0 to ligand: exhibits a fluorescent signal change

## Nc1nc2c(ncn2[C@@H]2O[C@H](COP(=O)(O)OP(=O)(O)OP(O)(O)=S)[C@@H](O)[C@H]2O)c(=O)[nH]1 [GTPγS]
Human ADRA2A receptor; PTX co-transfection or GTPγS with digitonin
  effect of Gαi inhibition on concentration-dependent curve of GRAB-NE2.0 to NE: did not change the concentration-dependent curve

Source: US20200400567A1, “FUSION POLYPEPTIDE” (PEKING UNIVERSITY, priority 2017, published 2020)
